The numbers were not newly measured in PubChem BioAssay AID493017, which cites them from elsewhere.

One series deals with WOMBAT literature affinities, multiple human targets. Kind of series: PubChem AID 493017. The settings on record: HIV-1 P; gene HIV-1 protease.
As for `CC(C)(C)OC(=O)NC(Cc1ccccc1)C(O)CNCC(O)C(Cc1ccccc1)NC(=O)OC(C)(C)C` (stereo not given), the IC50 was 125 nM. `CC(C)(C)OC(=O)NC(Cc1ccccc1)C(O)C[C@]1(Cc2ccccc2)NC=C(C2c3ccccc3C3NC(=O)OC32)C1=O` (stereo not given in full): the IC50 is 2.5 nM. Regarding `Cc1cc(SC2=C(O)CC(CCc3ccc(O)cc3)(c3ccc(O)cc3)OC2=O)c(C(C)(C)C)cc1CO` (stereo not given), the IC50 is 120 nM. As to `CC(=O)NC(CO)C(=O)NC(CC(C)C)C(=O)NC(CC(N)=O)C(=O)NC(Cc1ccccc1)C(O)CN1CCCC1C(=O)OC(C)(C)C` (stereo not given), the IC50 is 14 nM.

On to `CC(C)(C)OC(=O)NC(Cc1ccccc1)C(O)C(O)C(Cc1ccccc1)NC(=O)OC(C)(C)C` (stereo not given), for which the 50% inhibitory concentration (IC50) was 12 nM. Regarding `O=C(NC1c2ccccc2CC1O)C(Cc1ccccc1)CC(O)CC(Cc1ccccc1)C(=O)NC1c2ccccc2CC1O` (stereo not given), the IC50 was 0.69 nM.

Turning to `Cc1cc(O)cc(C)c1CNC(=O)C(Cc1ccccc1)CC(O)CN1CCN(C(=O)c2cccnc2)CC1C(=O)NC(C)(C)C` (stereo not given), the IC50 is 8.2 nM. Consider `CSCCC(NC(=O)C(CCO)N(Cc1ccccc1)C(=O)C(CC(C)C)NC(=O)OCc1ccccc1)C(=O)NC(C)(C)C` (stereo not given), for which the IC50 was 365 nM. On to `CC(=O)NC(C(=O)NC(Cc1ccccc1)C(O)C(Cc1ccccc1)NC(=O)C(NC(C)=O)C(C)C)C(C)C` (stereo not given), for which the IC50 is 12 nM. With `CSCCC(NC(=O)C(CO)N(Cc1ccccc1)Cc1ccccc1)C(=O)NC(C)(C)C` (stereo not given), the IC50 was 2220 nM. Consider `O=C1OC(c2ccccc2)CC(O)=C1SCCc1ccccc1` (stereo not given), for which the IC50 was 2100 nM. As to `Cc1cc(SC2=C(O)CC(CCc3ccc(O)cc3)(C(C)C)OC2=O)c(C(C)(C)C)cc1OS(C)(=O)=O` (stereo not given), the IC50 is 2.2 nM. For the compound `CC(C)(C)NC(=O)c1ccccc1CCC(O)Cc1ccc2ccccc2c1C(=O)NC(C)(C)C` (stereo not given), the half-maximal inhibitory concentration (IC50) is 1100 nM. Take `Cc1c(O)cccc1C(=O)NC(CC(C)C)C(=O)N(Cc1ccccc1)N(CCO)C(=O)C1CCCN1C(=O)OC(C)(C)C` (stereo not given): the IC50 was 5000 nM. Turning to `O=C1OC(CCc2ccccc2)(c2ccccc2)CC(O)=C1SCCc1ccccc1` (stereo not given), the IC50 was 51 nM. In the case of `CC(C)(C)OC(=O)NC(Cc1ccccc1)C(O)CC(Cc1ccccc1)C(=O)NCC1CCCCC1` (stereo not given), the half-inhibitory concentration (IC50) was 30000 nM.

The same series, now with this note: HIV-1 RT; gene HIV-1 reverse transcriptase.
Take `CC(C)c1c(Sc2ccccc2)n(COCc2ccccc2)c(=S)[nH]c1=O`: the IC50 was 6.8 nM.

In the case of `CCCOCn1c(Sc2ccccc2)c(C)c(=O)[nH]c1=O`, the IC50 was 3600 nM. Consider `Cc1cccc(NC(=S)NC(C)c2ccccc2)n1` (stereo not given), for which the IC50 was 1700 nM.

`CC(C)C#C[C@@]1(C(F)(F)F)NC(=O)Nc2ccc(F)c(F)c21`: the IC50 is 1520 nM.

Regarding `COC(=O)c1c(Br)c(OC)c2c(c1-c1c3c(c(OC)c(Br)c1C(=O)OC)OCO3)OCO2`, the half-inhibitory concentration (IC50) is 1900 nM.

As for `O=C1Nc2ccc(Cl)cc2[C@@](C#CC2CC2)(C(F)(F)F)C1OCc1ccccc1` (stereo not given in full), the half-inhibitory concentration (IC50) is 440 nM. Regarding `Cc1c(Sc2cccc(O)c2)n(COCCO)c(=O)[nH]c1=O`, the IC50 was 82000 nM. Turning to `CCc1c(Sc2cc(C)cc(C)c2)n(CC=Cc2ccco2)c(=O)[nH]c1=O`, the IC50 was 40 nM. On to `Cc1c(Sc2ccccc2)n(CC=Cc2cccnc2)c(=O)[nH]c1=O`, for which the concentration for half-maximal inhibition (IC50) was 100 nM. On to `CCC1(CC)OC(=O)Nc2ccc(Cl)cc21`, for which the IC50 was 16.5 nM. As for `COC(=O)CCCC=C(c1cc(C)c(OC)c(C(=O)OC)c1)c1cc(C)c(OC)c(C(=O)OC)c1`, the half-inhibitory concentration (IC50) was 1000 nM. In the case of `CC1O[C@](C#CC2CC2)(C(F)(F)F)c2cc(Cl)ccc2NC1=O` (stereo not given in full), the IC50 is 249 nM.

With `CCOC(=O)c1cccn1S(=O)(=O)c1cc(C)ccc1[N+](=O)[O-]`, the IC50 is 5000 nM. Consider `CCN1c2ncc(CSc3ccncc3)cc2C(=O)N(C)c2c(C)cc(Cl)nc21`, for which the IC50 is 3 nM.

For `CCc1c(Cc2ccccc2)n(CCOC)c(=O)[nH]c1=O`, the IC50 was 250 nM. For `CCOCn1c(Sc2cc(C)cc(C)c2)c(CC)c(=O)[nH]c1=S`, the IC50 was 4.4 nM.

Take `CCCCCCCCOC(=O)c1cc2c([nH]c3ccccc32)c(-c2ccc3c(n2)C(=O)C(NC(C)=O)=CC3=O)n1`: the IC50 is 3000 nM. Turning to `O=C1c2ccccc2C(=O)N1CCOC(=S)N(C(=O)c1cccnc1Cl)c1ccc(Cl)cc1`, the IC50 is 2000 nM. Consider `Cc1cc(C)cc(Sc2c(C)c(=O)[nH]c(=O)n2COCCO)c1`, for which the IC50 is 260 nM. In the case of `CCOCn1c(Sc2ccccc2)c(CC)c(=O)[nH]c1=O`, the IC50 is 19 nM. With `O=C1Nc2ccc(Cl)cc2[C@@](C#CC2CC2)(C(F)(F)F)N1`, the IC50 is 31 nM.

As for `Cc1ccc2c(c1)[C@@](C#CC1CC1)(C(F)(F)F)OC(=O)N2`, the IC50 was 0.133 nM.

Regarding `CC1C(=O)Nc2ccc(Cl)cc2S(=O)(=O)N1Cc1cc(Cl)cc(Cl)c1` (stereo not given), the IC50 was 2130 nM. On to `CCCc1cc(=O)oc2c3c(c4c(c12)OC(C)(C)C=C4)OC(CC)C(C)C3O` (stereo not given), for which the IC50 was 3200 nM.

The term IC50 denotes the concentration that gives 50% inhibition.
